# Experimental data as given in PubChem BioAssay AID1963864 (Molecular Pharmacology Branch, DTP, NCI, 2024).
# Test system: KRAS PDC multicell spheroid viability
# Assay: Anticancer human tumor 521955-158-R6-J3-PDC patient-derived pancreatic carcinoma cell line growth inhibition [KRAS2]
# Conditions: for IC50: curve of first compound; for viability, T/C: stronger effect = lower value
# Source text: Multicellular complex tumor spheroid response to RAS pathway inhibitors in combination with a targeted agents in patient-derived cell lines with oncogenic KRAS variants from multiple cancer types
# A high-throughput screen of multi-cell type tumor spheroids was designed to identify active combinations of targeted small molecules and KRAS pathway inhibitors. Complex spheroids include a stromal component modeled by human endothelial cells (HUVEC) and fibroblasts modeled by human mesenchymal stem cells (MSCs). The concentration ranges selected for each drug and investigational agent were based upon clinically achievable concentrations if the clinical Cmax of the agent was known.
# Compounds. The drugs and investigational agents: BI-3406 (NSC825286), BAY-293 (NSC824723), batoprotafib (TNO155; NSC825523), sotorasib (AMG 510; NSC818433), MRTX1257 (NSC819558), elimusertib (BAY 1895344; NSC800525), molibresib (GSK525762; NSC774829), temuterkib (LY3214996; NSC803410), venetoclax (NSC766270), alisertib (NSC759677), olaparib (NSC753686), talazoparib (NSC767125), erdafitinib (NSC781556), ipatasertib (NSC767898), cabozantinib (NSC761068), nintedanib (NSC756659), abemaciclib (NSC768073), docetaxel (NSC628503), trametinib (NSC758246), and sapanisertib (NSC764658) were obtained from the National Cancer Institute (NCI) Developmental Therapeutics Program Chemical Repository. The FDA-approved anticancer drug set is available from the Developmental Therapeutics Program. […] The stock solutions were prepared in dimethyl sulfoxide (DMSO, Sigma-Aldrich, St. Louis, MO, cat. D2650) at 800-fold the tested concentration and stored at -70 degrees C prior to their use. All drugs and investigational agents were tested over a range starting from a high concentration at or near the clinical Cmax and decreasing in half-log increments. If the clinical Cmax for an agent had not been determined, the highest concentration tested was 10 microM.
# Cell Culture. All cells were maintained in an incubator at 37 degrees C and 5% CO2 with 95% humidity. The PDC lines were cultured according to standard operating procedures established by the NCI PDMR (https://pdmr.cancer.gov/sops/default.htm). Briefly, all PDCs were thawed and cultured in Matrigel-coated flasks prepared with a working solution of 1X Ham's F-12 nutrient mix, without supplementation (Invitrogen, Waltham, MA, cat. 11765054), 100 U/mL penicillin-streptomycin (Invitrogen, cat. 15140122), and 2.5% Matrigel (Corning Inc., Corning, NY, cat. 354248) for the first three passages. All PDCs were cultured in complete DMEM/F-12 media containing advanced DMEM/F-12 (Invitrogen, cat. 12634028), 4.9% defined fetal bovine serum, heat inactivated (HyClone Laboratories Inc., Logan, UT, cat. SH30070.03HI), 389 ng/mL hydrocortisone (Sigma-Aldrich, cat. H4001), 9.7 ng/mL human EGF recombinant protein (Invitrogen, cat. PHG0313), 23.4 microg/mL adenine (Sigma-Aldrich, cat. A2786), 97.3 U/mL penicillin-streptomycin (Invitrogen, cat. 15140122), 1.9 mM L-glutamine (Invitrogen, cat. 25030081), and 9.7 microM Y-27632 dihydrochloride (Tocris Bioscience, Bristol, United Kingdom, cat. 1254). The PDCs were cultured in complete DMEM/F12 media without 9.7 microM Y-27632 dihydrochloride for at least two passages prior to the screen. The established cell line HOP-62 was cultured in RPMI 1640 medium, HEPES (Invitrogen, cat. 22400105) with 10% defined fetal bovine serum (HyClone Laboratories Inc., cat. SH30070.03) and 2 mM L-glutamine (Invitrogen, cat. 25030081). The pooled donor HUVEC were cultured in endothelial cell growth medium 2 (PromoCell, Heidelberg, Germany, cat. C-22011) and the hMSC were cultured in mesenchymal stem cell growth medium 2 (PromoCell, cat. C-28009). For all experiments, HUVEC and hMSC were used at passages </=5, while the malignant cell lines were used at passages </=15. […]
# [1] = second compound 0.1 µM, first compound 0.0316 µM
# [2] = second compound 0.1 µM, first compound 0.1 µM
# [3] = second compound 0.1 µM, first compound 0.316 µM
# [4] = second compound 0.1 µM, first compound 1 µM
# [5] = second compound 0.1 µM, first compound 3.16 µM
# [6] = second compound 0.1 µM, first compound 10 µM
# [7] = second compound 0.316 µM, first compound 0.0316 µM
# [8] = second compound 0.316 µM, first compound 0.1 µM
# [9] = second compound 0.316 µM, first compound 0.316 µM
# [10] = second compound 0.316 µM, first compound 1 µM
# [11] = second compound 0.316 µM, first compound 3.16 µM
# [12] = second compound 0.316 µM, first compound 10 µM
# [13] = second compound 1 µM, first compound 0.0316 µM
# [14] = second compound 1 µM, first compound 0.1 µM
# [15] = second compound 1 µM, first compound 0.316 µM
# [16] = second compound 1 µM, first compound 1 µM
# [17] = second compound 1 µM, first compound 3.16 µM
# [18] = second compound 1 µM, first compound 10 µM
# [19] = second compound 3.16 µM, first compound 0.0316 µM
# [20] = second compound 3.16 µM, first compound 0.1 µM
# [21] = second compound 3.16 µM, first compound 0.316 µM
# [22] = second compound 3.16 µM, first compound 1 µM
# [23] = second compound 3.16 µM, first compound 3.16 µM
# [24] = second compound 3.16 µM, first compound 10 µM
# [25] = second compound 10 µM, first compound 0.0316 µM
# [26] = second compound 10 µM, first compound 0.1 µM
# [27] = second compound 10 µM, first compound 0.316 µM
# [28] = second compound 10 µM, first compound 1 µM
# [29] = second compound 10 µM, first compound 3.16 µM
# [30] = second compound 10 µM, first compound 10 µM
# 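Note: drug exposure lasted seven days.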
# 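Throughout, for viability, T/C: 100% = DMSO vehicle wells and lower means fewer viable cells.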
structure (smiles),measurement,setting,value
COc1cc2nccc(Oc3ccc(NC(=O)C4(C(=O)Nc5ccc(F)cc5)CC4)cc3)c2cc1OC + CNCc1ccccc1-c1csc(C(C)Nc2nc(C)nc3cc(OC)c(OC)cc23)c1,IC50,second compound 0.1 µM,> 10000 nM
same,IC50,second compound 0.316 µM,> 10000 nM
same,IC50,second compound 1 µM,2160 nM
same,IC50,second compound 3.16 µM,< 31.6 nM
same,IC50,second compound 10 µM,< 31.6 nM
same,"viability, T/C",[1],91.1%
same,"viability, T/C",[2],102%
same,"viability, T/C",[3],101%
same,"viability, T/C",[4],108%
same,"viability, T/C",[5],125%
same,"viability, T/C",[6],133%
same,"viability, T/C",[7],94.3%
same,"viability, T/C",[8],92.9%
same,"viability, T/C",[9],90.2%
same,"viability, T/C",[10],87.7%
same,"viability, T/C",[11],119%
same,"viability, T/C",[12],109%
same,"viability, T/C",[13],80.1%
same,"viability, T/C",[14],75.1%
same,"viability, T/C",[15],79.3%
same,"viability, T/C",[16],83.9%
same,"viability, T/C",[17],32.2%
same,"viability, T/C",[18],38.4%
same,"viability, T/C",[19],0.94%
same,"viability, T/C",[20],0.35%
same,"viability, T/C",[21],0.42%
same,"viability, T/C",[22],0.24%
same,"viability, T/C",[23],0.24%
same,"viability, T/C",[24],0.24%
same,"viability, T/C",[25],13.4%
same,"viability, T/C",[26],0.23%
same,"viability, T/C",[27],0.2%
same,"viability, T/C",[28],0.21%
same,"viability, T/C",[29],0.2%
same,"viability, T/C",[30],0.28%
CCN1CCN(Cc2ccc(Nc3ncc(F)c(-c4cc(F)c5nc(C)n(C(C)C)c5c4)n3)nc2)CC1 + C=CC(=O)N1CCN(c2nc(OCC3CCCN3C)nc3c2CCN(c2cccc4cccc(C)c24)C3)CC1CC#N,IC50,second compound 0.0316 µM,> 1000 nM
same,IC50,second compound 0.1 µM,> 1000 nM
same,IC50,second compound 0.316 µM,> 1000 nM
same,IC50,second compound 1 µM,> 1000 nM
same,IC50,second compound 3.16 µM,< 3.16 nM
same,"viability, T/C","second compound 0.0316 µM, first compound 0.00316 µM",94.4%
same,"viability, T/C","second compound 0.0316 µM, first compound 0.01 µM",81.9%
same,"viability, T/C","second compound 0.0316 µM, first compound 0.0316 µM",76%
same,"viability, T/C","second compound 0.0316 µM, first compound 0.1 µM",76.1%
same,"viability, T/C","second compound 0.0316 µM, first compound 0.316 µM",82.8%
same,"viability, T/C","second compound 0.0316 µM, first compound 1 µM",95.1%
same,"viability, T/C","second compound 0.1 µM, first compound 0.00316 µM",88.3%
same,"viability, T/C","second compound 0.1 µM, first compound 0.01 µM",93.6%
same,"viability, T/C",[1],81.4%
same,"viability, T/C",[2],85.7%
same,"viability, T/C",[3],82.9%
same,"viability, T/C",[4],98.8%
same,"viability, T/C","second compound 0.316 µM, first compound 0.00316 µM",86.1%
same,"viability, T/C","second compound 0.316 µM, first compound 0.01 µM",86.4%
same,"viability, T/C",[7],76.5%
same,"viability, T/C",[8],77.2%
same,"viability, T/C",[9],87.8%
same,"viability, T/C",[10],91.9%
same,"viability, T/C","second compound 1 µM, first compound 0.00316 µM",72%
same,"viability, T/C","second compound 1 µM, first compound 0.01 µM",84.5%
same,"viability, T/C",[13],71.3%
same,"viability, T/C",[14],65.2%
same,"viability, T/C",[15],79.9%
same,"viability, T/C",[16],103%
same,"viability, T/C","second compound 3.16 µM, first compound 0.00316 µM",24.9%
same,"viability, T/C","second compound 3.16 µM, first compound 0.01 µM",26.4%
same,"viability, T/C",[19],25.9%
same,"viability, T/C",[20],17.1%
same,"viability, T/C",[21],15.3%
same,"viability, T/C",[22],4.09%
COC(=O)c1ccc2c(C(=Nc3ccc(N(C)C(=O)CN4CCN(C)CC4)cc3)c3ccccc3)c(O)[nH]c2c1 + CC1OCC2(CCN(c3cnc(Sc4ccnc(N)c4Cl)c(N)n3)CC2)C1N,IC50,second compound 0.1 µM,2590 nM
same,IC50,second compound 0.316 µM,2150 nM
same,IC50,second compound 1 µM,2120 nM
same,IC50,second compound 3.16 µM,2150 nM
same,IC50,second compound 10 µM,1470 nM
same,"viability, T/C",[1],79.8%
same,"viability, T/C",[2],88.5%
same,"viability, T/C",[3],108%
same,"viability, T/C",[4],114%
same,"viability, T/C",[5],40%
same,"viability, T/C",[6],1.22%
same,"viability, T/C",[7],82.5%
same,"viability, T/C",[8],102%
same,"viability, T/C",[9],110%
same,"viability, T/C",[10],113%
same,"viability, T/C",[11],23.6%
same,"viability, T/C",[12],0.76%
same,"viability, T/C",[13],106%
same,"viability, T/C",[14],104%
same,"viability, T/C",[15],111%
same,"viability, T/C",[16],95.6%
same,"viability, T/C",[17],25.5%
same,"viability, T/C",[18],0.47%
same,"viability, T/C",[19],101%
same,"viability, T/C",[20],120%
same,"viability, T/C",[21],103%
same,"viability, T/C",[22],99.2%
same,"viability, T/C",[23],25.4%
same,"viability, T/C",[24],0.29%
same,"viability, T/C",[25],94.8%
same,"viability, T/C",[26],94.8%
same,"viability, T/C",[27],83.7%
same,"viability, T/C",[28],72.2%
same,"viability, T/C",[29],6.64%
same,"viability, T/C",[30],2.18%
CC1(C)CCC(CN2CCN(c3ccc(C(=O)NS(=O)(=O)c4ccc(NCC5CCOCC5)c([N+](=O)[O-])c4)c(Oc4cnc5[nH]ccc5c4)c3)CC2)=C(c2ccc(Cl)cc2)C1 + COc1cc2nc(C)nc(NC(C)c3cc(N)cc(C(F)(F)F)c3)c2cc1OC1CCOC1,IC50,second compound 0.1 µM,8210 nM
same,IC50,second compound 0.316 µM,8720 nM
same,IC50,second compound 1 µM,6080 nM
same,IC50,second compound 3.16 µM,2810 nM
same,IC50,second compound 10 µM,< 31.6 nM
same,"viability, T/C",[1],103%
same,"viability, T/C",[2],100%
same,"viability, T/C",[3],91.6%
same,"viability, T/C",[4],107%
same,"viability, T/C",[5],77.8%
same,"viability, T/C",[6],44.3%
same,"viability, T/C",[7],90.8%
same,"viability, T/C",[8],102%
same,"viability, T/C",[9],95.7%
same,"viability, T/C",[10],81.7%
same,"viability, T/C",[11],70.5%
same,"viability, T/C",[12],47.1%
same,"viability, T/C",[13],90.1%
same,"viability, T/C",[14],99.3%
same,"viability, T/C",[15],88.1%
same,"viability, T/C",[16],89.5%
same,"viability, T/C",[17],63.1%
same,"viability, T/C",[18],40%
same,"viability, T/C",[19],68.9%
same,"viability, T/C",[20],67.5%
same,"viability, T/C",[21],69.3%
same,"viability, T/C",[22],74%
same,"viability, T/C",[23],47.7%
same,"viability, T/C",[24],30.3%
same,"viability, T/C",[25],19.5%
same,"viability, T/C",[26],23.6%
same,"viability, T/C",[27],17.3%
same,"viability, T/C",[28],31.4%
same,"viability, T/C",[29],18.6%
same,"viability, T/C",[30],4.55%
